Patent US20250295609A1, “COMPOUND HAVING ANTI-ANDROGEN RECEPTOR ACTIVITY, AND USE THEREOF” (NANJING MINOVA PHARMACEUTICAL CO., LTD., priority 2022, published 2025)

Tested on: alopecia mouse model
Test: Hair growth promotion test in mice with alopecia (testosterone propionate model)
Assay type: in vivo, C57BL/6 mice
Experimental: The compounds of the present disclosure were tested for their hair growth-promoting effects on an alopecia mouse model.
C57BL/6 mice (purchased from SPF (Beijing) Biotechnology Co., Ltd., production license No.: SCXK (Beijing) 2019-0010), test compounds (prepared by the method of the present disclosure), rosin (Shanghai YuanYe Bio-Technology Co., Ltd., lot No. Y18M10C83144), liquid paraffin (Shanghai YuanYe Bio-Technology Co., Ltd., lot No.: Z22S11Y125555), chloral hydrate (Sinopharm Chemical Reagent Co., Ltd., lot No.: 20190823, a 2% chloral hydrate solution was prepared by using a 0.9% sodium chloride solution before use), testosterone propionate (Aladdin Reagent (Shanghai) Co., Ltd., lot No.: T101368, a 0.5% testosterone propionate solution was prepared by using an a soybean oil for injection before use), soybean oil for injection (Liaoning Shinsun Pharmaceutical Co., Ltd., lot No.: NMPA Approval No. H21024303), paraformaldehyde (Xilong Scientific Co., Ltd., lot No.: 1705022), a 0.9% sodium chloride solution (Jiangsu Huai'an Shuanghe Pharmaceutical Co., Ltd., lot No.: 210322-3C), an electronic balance (Beijing Sartorius Scientific Instruments Co., Ltd., model: BS224 S; GZX-9140MBE), and a digital display electric heating constant temperature air blast drying oven (Shanghai Boxun Medical Biological Instrument Corp.).
8-week-old male C57BL/6 mice were selected and injected with 2% chloral hydrate (400 mg/kg) for anesthesia. Equal amounts of rosin and paraffin were weighed out, heated, and mixed well. The mixture was applied on the front back of the mice in an area of about 2 cm×2.5 cm. After the mixture was cooled to be hard, the solidified hair was torn off by tweezers gently.
Qualified C57BL/6 mice (3 mice per group) were randomly assigned to a blank group, a model group, a positive control drug group (7.5% clascoterone group), and test groups (including 0.3% compound 8 group and 0.3% compound 7 group). Mice in the blank group were coated with 0.1 mL of normal saline in the depilated area every morning (1 time a day for 17 consecutive days); mice in the model group were coated with 0.1 mL of 0.5% testosterone propionate solution in the depilated area every morning (1 time a day, starting on the first day, for 17 consecutive days), and with 0.5 mL of the control solvent in the depilated area every afternoon (1 time a day, starting on the second day, for 16 consecutive days); mice in the positive control drug group were coated with 0.1 mL of 0.5% testosterone propionate solution in the depilated area every morning (1 time a day, starting on the first day, for 17 consecutive days), and with 0.5 mL of 7.5% clascoterone solution in the depilated area every afternoon (1 time a day, starting on the second day, for 16 consecutive days); and mice in the test groups were coated with 0.1 mL of 0.5% testosterone propionate solution in the depilated area every morning (1 time a day, starting on the first day, for 17 consecutive days), and with 0.5 mL of 0.3% test compound solution in the depilated area every afternoon (1 time a day, starting on the second day, for 16 consecutive days). The formula of the test compound solution was 0.3% test compound, 40% DMSO, 30% ethanol, and the balance of water; the formula of the control solvent was 40% DMSO, 30% ethanol, and the balance of water; the formula of the positive control drug group was 7.5% clascoterone, 40% DMSO, 30% ethanol, and the balance of water. The hair regrowth in the depilated area of the mice in each group was observed and photographed 16 days after the start of topical administration of the test compound solution.
On day 18 of the test, 5 new hairs were pulled out from the back depilated area of each mouse in each group, the lengths of the hairs were measured using a vernier caliper, and the lengths of the hairs of the mice in each group were counted. The skin of the depilated area of the mice in each group was cut out, and hematoxylin-eosin staining (HE staining) was performed. […]

CCC(=O)O[C@]1(C(=O)CO)CC[C@H]2[C@@H]3CCC4=CC(=O)CC[C@]4(C)[C@H]3CC[C@@]21C [clascoterone, reference compound]
hair growth and number of hair follicles compared to the model group (in words) (alopecia mouse model, FIG. 3): significantly grown hairs and the number of hair follicles was significantly increased
Number of hair follicles (X ± SD) (day 18, per field (×100), HE staining, topical once daily for 16 days): 53.533 ± 24.929
Hair length (X ± SD) (day 18, topical once daily for 16 days, testosterone propionate alopecia mice): 5.649 ± 0.059 mm
